Measurements reported in patent US8722909B2, “Antiprotozoal compound derived from coelenterata” (Waseda University, priority 2010, dated 2014).
Values after ≈ are worked out from the molar mass of the structure shown.

How the values were obtained:
Assay type in all cases: cell-based
[1] = test system: EGFP transgenic Leishmania protozoa (LaEGFP); assay: microbe, parasite or virus in culture
Protocol: EGFP transgenic Leishmania protozoa (LaEGFP, Okuno T et al., Exp. Anim, 52: 109 (2003)) 1×10^5 cells were inoculated into a 96-well plate, and a sample diluted with a culture medium was then added and incubated for 72 hours. Subsequently, the fluorescence intensity within each well was measured using a fluorescence plate reader, and the antileishmanial activity of the test sample was calculated.

[2] = test system: Trypanosoma congolense (bloodstream form); assay: Antitrypanosomal activity test (TetraColor ONE, 48 hours)
Protocol: Trypanosoma congolense (bloodstream form) 2×10^5 cells were inoculated into a 96-well plate, and a sample diluted with a culture medium was then added and cultured for 48 hours. Subsequently, 10 μL of TetraColor ONE (Seikagaku Biobusiness Corporation) was added to each well to measure the viable cell count, and after 4 hours, the absorbance at 450 nm was measured.

[3] = test system: human cervical cancer-derived HeLa cells; assay: Cytotoxicity test (MTT), HeLa; settings: isolated compound, 72 hours, read-out: IC50 value against HeLa cells
Protocol: (§1) A suspension of human cervical cancer-derived HeLa cells and mouse lymphoma-derived P388 cells (1×10^4 cells/mL) 200 μL was dispended into each well of rows A to H, columns 1 to 11 of a 96-well microplate, and the suspension was then incubated for 24 hours at 37° C. Subsequently, 2 μL of a methanol solution of the sample (1 mg/mL) was added to each well of row A, columns 1 to 10 of the 96-well microplate, and 2 μL of adriamycin (1 mg/mL) was added to the well of row A, column 11 as a positive control. Only the culture medium 200 μL was added to each well of rows A to D, column 12, and 200 μL of the aforementioned suspension of 1×10^4 cells/mL was added to each well of rows E to H, column 12. Using a multi-channel pipette, 50 μL of the culture medium was aspirated from the well of each column of row A and added to the well of the corresponding column of row B, and then 50 μL of the culture medium was aspirated from the well of each column of row B and added to the well of the corresponding column of row C. […] Following culturing for 72 hours, 50 μL of 1 mg/mL PBS solution of MTT (3-[4,5-dimethylthiazol-2-yl]-2,5-diphenyl tetrazolium bromide) was added to each well. […] For each well, the absorbance of the colorimetric substrate dissolved in the DMSO was measured using a multi-well plate reader, and the concentration at which half the cells were inhibited (IC50) was determined. […]

[4] = test system: mouse lymphoma-derived P388 cells; assay: Cytotoxicity test (MTT), P388; settings: isolated compound, 72 hours, read-out: IC50 value against P388 cells
Protocol: as §1

[5] = test system: human promyelocytic leukemia-derived HL-60 cells; assay: Cytotoxicity test (MTT), HL-60; settings: isolated compound, 72 hours, read-out: IC50 value against HL-60 cells
Protocol: A suspension of human cervical cancer-derived HeLa cells, human promyelocytic leukemia-derived HL-60 cells, and mouse lymphoma-derived P388 cells (1×10^4 cells/mL) 200 μL was dispended into each well of rows A to H, columns 1 to 11 of a 96-well microplate, and the suspension was then incubated for 24 hours at 37° C. Subsequently, 2 μL of a methanol solution of the sample (1 mg/mL) was added to each well of row A, columns 1 to 10 of the 96-well microplate, and 2 μL of adriamycin (1 mg/mL) was added to the well of row A, column 11 as a positive control. Only the culture medium 200 μL was added to each well of rows A to D, column 12, and 200 μL of the aforementioned suspension of 1×10^4 cells/mL was added to each well of rows E to H, column 12. Using a multi-channel pipette, 50 μL of the culture medium was aspirated from the well of each column of row A and added to the well of the corresponding column of row B, and then 50 μL of the culture medium was aspirated from the well of each column of row B and added to the well of the corresponding column of row C. […] For each well, the absorbance of the colorimetric substrate dissolved in the DMSO was measured using a multi-well plate reader, and the concentration at which half the cells were inhibited (IC50) was determined.

[6] = test system: Plasmodium falciparum K-1 strain; assay: Antiplasmodial activity test (SYBR GREEN, 48 hours); settings: read-out: IC50 value against the Plasmodium falciparum K-1 strain
Protocol: Synchronized 0.5% ring stage Plasmodium falciparum K-1 strain 90 μL was added to each well of a 96-well plate, and a sample diluted with a culture medium was then added and incubated for 48 hours. Subsequently, 100 μL of a mixed solution prepared by adding 0.2 μL of SYBR GREEN to 1 mL of lysis buffer (20 mM Tris (pH 7.5), 5 mM EDTA, 0.008% (wt/vol) saponin, 0.08% (vol/vol) Triton X-100) was added to each well, and stirred with a vortex mixer. Following standing for 1 hour in a dark place, the fluorescence was measured with a fluorescence plate reader, using an excitation wavelength of 485 nm and a detection wavelength of 530 nm.

With `C[C@@H]1[C@H](O)[C@@H](C)/C=C/C=C/C=C/C=C/C=C/C=C/C=C/[C@H](O[C@@H]2O[C@H](C)[C@@H](O)[C@H](N)[C@@H]2O)C[C@@H]2O[C@](O)(C[C@@H](O)C[C@@H](O)[C@H](O)CC[C@@H](O)C[C@@H](O)CC(=O)O[C@H]1C)C[C@H](O)[C@H]2C(=O)O` [amphotericin B, reference compound] the “IC50 value against the LaEGFP (antileishmanial activity)” value ([1]; LaEGFP, 72 hours) was “approximately 20 ng/mL” and the “IC50 value against the T. congolense” value [2] was 0.811 µg/mL (≈ 0.878 µM).

With `CC(=O)O/C=C1\CCC/C(C=O)=C\C[C@@H]2C(C(=O)CC=C(C)C)=CO[C@H](OC(C)=O)[C@@H]12` [cristaxenicin A] the IC50 ([1]; Leishmania, 72 h, read-out: IC50 value against the LaEGFP (antileishmanial activity)) was 0.036 µg/mL (≈ 0.0836 µM), the IC50 [3] was 2 µg/mL (≈ 4.65 µM) and the IC50 [4] was 0.89 µg/mL (≈ 2.07 µM). The IC50 [5] was 0.727 µg/mL (≈ 1.69 µM), the IC50 ([2]; Trypanosoma congolense, read-out: IC50 value against the T. congolense) was 0.107 µg/mL (≈ 0.249 µM) and the IC50 [6] was 4.6 µg/mL (≈ 10.7 µM).

cristaxenicin A was tested, and the “antiprotozoal activity of HPLC peak fractions (in words)” value ([1]; reversed phase HPLC peak fractions) was “exhibited antiprotozoal activity”.
